Like-named read-outs stand apart in the source and are kept apart here.
Columns and labels:
[1] = target: T1, rat MCH1 receptor (Rattus norvegicus, UniProt P97639); test: Binding affinity (Ki) at the rat MCH1 receptor
T1 construct: expressed in transfected cells
Procedure: For binding assays, pellets of transfected cells are suspended in ice-cold buffer (20 mM Tris.HCl, 5 mM EDTA, pH 7.4) and homogenized by sonication for 7 sec. The cell lysates are centrifuged at 200×g for 5 min at 4° C. The supernatants are then centrifuged at 40,000×g for 20 min at 4° C. The resulting pellets are washed once in the homogenization buffer and suspended in binding buffer (see methods for radioligand binding). Protein concentrations are determined by the method of Bradford (1976) using bovine serum albumin as the standard. Binding assays are usually performed immediately, however it is possible to prepare membranes in batch and store frozen in liquid nitrogen for future use.
Binding is performed at 25° C. for 1 hr. Incubations are terminated by rapid vacuum filtration over GF/C glass fiber filters, presoaked in 5% PEI using 50 mM Tris pH 7.4 containing 0.01% triton X-100 as wash buffer.
A methanolic solution of methyl (4S)-3-({[3-(4-[3-(acetylamino)phenyl]-3,6-dihydro-1(2H)pyridinyl)propyl]amino}carbonyl)-4-(3,4-difluorophenyl)-6-(methoxymethyl)-2-oxo-1,2,3,4-tetrahydro-5-pyrimidinecarboxylate was exposed to tritium gas at 1 atmosphere pressure in the presence of 5% palladium on carbon with stirring overnight to give the tritiated methyl (4S)-3-{[(3-{4-[3-(acetylamino)phenyl]-1-piperidinyl}propyl)amino]carbonyl}-4-(3,4-difluorophenyl)-6-(methoxymethyl)-2-oxo-1,2,3,4-tetrahydro-5-pyrimidinecarboxylate ((+)-isomer) After purification by reverse phase HPLC (Hypersil ODS, 4.6×100 mm, methanol:H2O:Et3N 10:90:1 to 100:0:1 in 15 min at 1.0 mL/min, with radiochemical and UV detection), this product was used as a radioligand in the MCH1 binding assays. The same procedure was carried out with H2 gas in place of ^3H2 to afford the non-radioactive version of Compound 10.

[2] = target: T2, human Dopamine D2 receptor (Homo sapiens, UniProt P14416); test: Binding affinity at the human dopamine D2 receptor; details: Table 3c; read-out: hD2 Ki
T2 construct: purchased BioSignal, Inc. (Montreal, Canada)
T2 sequence (P14416 whole entry): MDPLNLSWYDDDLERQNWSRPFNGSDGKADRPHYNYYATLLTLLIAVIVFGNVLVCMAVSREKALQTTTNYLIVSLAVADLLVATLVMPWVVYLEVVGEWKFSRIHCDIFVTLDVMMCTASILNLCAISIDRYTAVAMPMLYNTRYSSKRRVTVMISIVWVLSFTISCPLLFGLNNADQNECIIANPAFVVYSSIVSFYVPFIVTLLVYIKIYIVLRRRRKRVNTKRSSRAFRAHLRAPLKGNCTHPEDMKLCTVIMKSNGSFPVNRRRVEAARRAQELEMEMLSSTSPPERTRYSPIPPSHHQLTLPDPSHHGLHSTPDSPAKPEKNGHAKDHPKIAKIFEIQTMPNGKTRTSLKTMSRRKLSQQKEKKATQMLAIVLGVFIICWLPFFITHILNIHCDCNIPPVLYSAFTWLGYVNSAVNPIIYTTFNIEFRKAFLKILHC
Text: (§1) Other receptors: Cell membranes expressing human dopamine D1, D2, D4 and rat D3 receptors were purchased through BioSignal, Inc. (Montreal, Canada). Binding assays using the histamine H1 receptor; dopamine receptors; and α1A, α1B, and α2 adrenergic receptors may be carried out according to the procedures described in U.S. Pat. No. 5,780,485, the disclosure of which is hereby incorporated by reference in its entirety into this application. Binding assays using the dopamine D5 receptor may be carried out according to the procedures described in U.S. Pat. No. 5,882,855, the disclosure of which is hereby incorporated by reference in its entirety into this application. Binding assays for the human α1D adrenergic receptor may be carried out according to the procedures described in U.S. Pat. No. 6,156,518, the disclosure of which is hereby incorporated by reference in its entirety into this application.

[3] = target: T3, human Histamine H1 receptor (Homo sapiens, UniProt P35367); test: Binding affinity at the human histamine H1 receptor; details: Table 3c; read-out: hH1 Ki
T3 construct: expressed in transfected cells
T3 sequence (P35367 whole entry): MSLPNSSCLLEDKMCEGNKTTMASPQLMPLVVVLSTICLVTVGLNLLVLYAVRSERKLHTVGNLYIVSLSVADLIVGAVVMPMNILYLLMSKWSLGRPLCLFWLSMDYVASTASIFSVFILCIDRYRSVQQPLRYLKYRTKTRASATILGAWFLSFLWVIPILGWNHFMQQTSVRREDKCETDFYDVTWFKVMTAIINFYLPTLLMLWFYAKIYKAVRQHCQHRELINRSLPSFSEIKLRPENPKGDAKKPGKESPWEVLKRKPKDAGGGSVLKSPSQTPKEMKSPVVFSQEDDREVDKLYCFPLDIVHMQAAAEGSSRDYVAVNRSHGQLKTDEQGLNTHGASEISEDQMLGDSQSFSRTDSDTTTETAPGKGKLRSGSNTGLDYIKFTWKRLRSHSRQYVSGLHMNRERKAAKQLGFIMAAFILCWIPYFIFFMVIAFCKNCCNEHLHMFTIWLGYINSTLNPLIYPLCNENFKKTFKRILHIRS
Text: as §1

[4] = target: T4, human Alpha-1a Adrenergic receptor (Homo sapiens, UniProt P35348); test: Binding affinity at the human alpha-1A adrenergic receptor; details: Table 3c; read-out: hAlpha-1a Ki
T4 construct: expressed in transfected cells
T4 sequence (P35348 1-466): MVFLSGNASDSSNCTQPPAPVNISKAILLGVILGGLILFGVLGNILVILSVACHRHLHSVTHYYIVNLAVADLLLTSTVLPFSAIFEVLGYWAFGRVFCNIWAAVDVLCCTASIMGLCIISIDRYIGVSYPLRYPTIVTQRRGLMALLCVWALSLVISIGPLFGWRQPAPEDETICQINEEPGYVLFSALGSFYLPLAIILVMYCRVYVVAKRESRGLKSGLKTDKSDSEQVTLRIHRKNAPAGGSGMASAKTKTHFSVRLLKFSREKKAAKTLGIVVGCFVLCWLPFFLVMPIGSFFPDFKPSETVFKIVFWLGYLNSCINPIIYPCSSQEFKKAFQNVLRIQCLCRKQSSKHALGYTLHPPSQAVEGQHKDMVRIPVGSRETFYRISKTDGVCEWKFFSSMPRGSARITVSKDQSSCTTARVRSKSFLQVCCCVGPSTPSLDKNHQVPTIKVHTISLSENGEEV
Text: as §1

[5] = Examples 38-141, read-out: Ki (nM) rMCH1

T1 sequence (P97639 whole entry): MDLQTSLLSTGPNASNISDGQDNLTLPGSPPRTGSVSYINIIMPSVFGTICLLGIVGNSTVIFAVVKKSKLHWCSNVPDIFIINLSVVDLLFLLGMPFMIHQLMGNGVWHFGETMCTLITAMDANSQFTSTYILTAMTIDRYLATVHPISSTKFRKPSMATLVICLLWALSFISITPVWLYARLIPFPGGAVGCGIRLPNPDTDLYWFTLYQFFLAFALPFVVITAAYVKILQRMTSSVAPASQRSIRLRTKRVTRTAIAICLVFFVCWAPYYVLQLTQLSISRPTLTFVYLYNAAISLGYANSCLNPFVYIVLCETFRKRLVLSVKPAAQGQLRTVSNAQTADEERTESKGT

COCC(=O)Nc1cccc(C2CCN(CCCNC(=O)N3C(=O)NC(COC)=C(C(=O)OC)[C@@H]3c3ccc(F)c(F)c3)CC2)c1 [Example 39, METHYL (4S)-4-(3,4-DIFLUOROPHENYL)-3-({[3-(4-{3-[(METHOXYACETYL)AMINO]PHENYL}-1-PIPERIDINYL)PROPYL]AMINO}CARBONYL)-6-(METHOXYMETHYL)-2-OXO-1,2,3,4-TETRAHYDRO-5-PYRIMIDINECARBOXYLATE]
Ki [1, 5]: 3.33 nM
Ki ([1]; Table 3c, read-out: rMCH1 Ki): 3.33 nM
Ki [2]: 25100 nM
Ki [3]: 5660 nM
Ki [4]: 25.5 nM

COCC1=C(C(=O)OC)[C@H](c2ccc(F)c(F)c2)N(C(=O)NCCCN2CCC(c3cccc(NC(=O)CC(C)(C)C)c3)CC2)C(=O)N1 [Example 40, METHYL (4S)-4-(3,4-DIFLUOROPHENYL)-3-({[3-(4-{3-[(3,3-DIMETHYLBUTANOYL)AMINO]PHENYL}-1-PIPERIDINYL)PROPYL]AMINO}CARBONYL)-6-(METHOXYMETHYL)-2-OXO-1,2,3,4-TETRAHYDRO-5-PYRIMIDINECARBOXYLATE]
Ki [1, 5]: 2.72 nM
Ki ([1]; Table 3c, read-out: rMCH1 Ki): 2.72 nM
Ki [2]: 2650 nM
Ki [3]: 7120 nM
Ki [4]: 8.72 nM

CCC(=O)Nc1cccc(C2CCN(CCCNC(=O)N3C(=O)NC(COC)=C(C(=O)OC)[C@@H]3c3ccc(F)c(F)c3)CC2)c1 [Example 41, METHYL (4S)-4-(3,4-DIFLUOROPHENYL)-6-(METHOXYMETHYL)-2-OXO-3-{[(3-{4-[3-(PROPIONYLAMINO)PHENYL]-1-PIPERIDINYL)PROPYL)AMINO]CARBONYL}-1,2,3,4-TETRAHYDRO-5-PYRIMIDINECARBOXYLATE]
Ki [1, 5]: 0.04 nM
Ki ([1]; Table 3c, read-out: rMCH1 Ki): 0.04 nM
Ki [2]: 9610 nM
Ki [3]: 4540 nM
Ki [4]: 14.3 nM

COCC1=C(C(=O)OC)[C@H](c2ccc(F)c(F)c2)N(C(=O)NCCCN2CCC(c3cccc(NC(=O)CC(C)C)c3)CC2)C(=O)N1 [Example 42, METHYL (4S)-4-(3,4-DIFLUOROPHENYL)-6-(METHOXYMETHYL)-3-({[3-(4-{3-[(3-METHYLBUTANOYL)AMINO]PHENYL}-1-PIPERIDINYL)PROPYL]AMINO}CARBONYL)-2-OXO-1,2,3,4-TETRAHYDRO-5-PYRIMIDINECARBOXYLATE]
Ki [1, 5]: 0.6 nM
Ki ([1]; Table 3c, read-out: rMCH1 Ki): 0.6 nM
Ki [2]: 3270 nM
Ki [3]: 7800 nM
Ki [4]: 10.9 nM

CCCC(=O)Nc1cccc(C2CCN(CCCNC(=O)N3C(=O)NC(COC)=C(C(=O)OC)[C@@H]3c3ccc(F)c(F)c3)CC2)c1 [Example 44, METHYL (4S)-3-{[(3-{4-[3-(BUTYRYLAMINO)PHENYL]-1-PIPERIDINYL}PROPYL)AMINO]CARBONYL}-4-(3,4-DIFLUOROPHENYL)-6-(METHOXYMETHYL)-2-OXO-1,2,3,4-TETRAHYDRO-5-PYRIMIDINECARBOXYLATE]
Ki [1, 5]: 0.09 nM
Ki ([1]; Table 3c, read-out: rMCH1 Ki): 0.09 nM
Ki [2]: 3610 nM
Ki [3]: 2590 nM
Ki [4]: 11.4 nM

CCCC(=O)Nc1cccc(C2CCN(CCCNC(=O)C3=C(COC)NC(=O)N[C@@H]3c3ccc(F)c(F)c3)CC2)c1 [Example 45]
Ki [1, 5]: 14.7 nM
Ki ([1]; Table 3c, read-out: rMCH1 Ki): 14.7 nM
Ki [2]: > 50000 nM
Ki [3]: 4430 nM
Ki [4]: 6030 nM

CCC(=O)Nc1cccc(C2CCN(CCCNC(=O)C3=C(COC)NC(=O)N[C@@H]3c3ccc(F)c(F)c3)CC2)c1 [Example 46]
Ki [1, 5]: 8.16 nM
Ki ([1]; Table 3c, read-out: rMCH1 Ki): 8.16 nM
Ki [2]: > 50000 nM
Ki [3]: 2870 nM
Ki [4]: 2420 nM

COCC1=C(C(=O)NCCCN2CCC(c3cccc(NC(=O)CC(C)C)c3)CC2)[C@@H](c2ccc(F)c(F)c2)NC(=O)N1 [Example 47]
Ki [1, 5]: 34.3 nM
Ki ([1]; Table 3c, read-out: rMCH1 Ki): 34.3 nM
Ki [2]: 13500 nM
Ki [3]: 3250 nM
Ki [4]: 553 nM

CCC(C)C(=O)Nc1cccc(C2CCN(CCCNC(=O)C3=C(COC)NC(=O)N[C@@H]3c3ccc(F)c(F)c3)CC2)c1 (stereo partly shown) [Example 48]
Ki [1, 5]: 22.1 nM
Ki ([1]; Table 3c, read-out: rMCH1 Ki): 22.1 nM
Ki [2]: > 50000 nM
Ki [3]: 7770 nM
Ki [4]: 16600 nM

COCC1=C(C(=O)NCCCN2CCC(c3cccc(NC(=O)C(C)C)c3)CC2)[C@@H](c2ccc(F)c(F)c2)NC(=O)N1 [Example 50]
Ki [1, 5]: 13.7 nM
Ki ([1]; Table 3c, read-out: rMCH1 Ki): 13.7 nM
Ki [2]: 19800 nM
Ki [3]: 7470 nM
Ki [4]: 10400 nM

CC(=O)Nc1cccc(C2CCN(CCCNC(=O)N3C(=O)NC(C)=C(C(C)=O)C3c3cc(F)c(F)c(F)c3)CC2)c1 (stereo not shown) [Example 51]
Ki [1, 5]: 0.79 nM
Ki ([1]; Table 3c, read-out: rMCH1 Ki): 0.79 nM
Ki [2]: 6640 nM
Ki [3]: 1230 nM
Ki [4]: 10.1 nM

CCC1=C(C(=O)OCc2ccccc2)C(c2ccc(F)cc2F)N(C(=O)NCCCN2CCC(c3cccc(NC(C)=O)c3)CC2)C(=O)N1 (stereo not shown) [Example 52, BENZYL 3-{[(3-{4-[3-(ACETYLAMINO)PHENYL]-1-PIPERIDINYL}PROPYL)AMINO]CARBONYL}-4-(2,4-DIFLUOROPHENYL)-6-ETHYL-2-OXO-1,2,3,4-TETRAHYDRO-5-PYRIMIDINECARBOXYLATE]
Ki [1, 5]: 0.81 nM
Ki ([1]; Table 3c, read-out: rMCH1 Ki): 0.81 nM
Ki [2]: 166 nM
Ki [3]: 1430 nM
Ki [4]: 200 nM

CC(=O)Nc1cccc(C2CCN(CCCNC(=O)N3C(=O)NC4=C(C(=O)OC4)C3c3ccc4c(c3)OCO4)CC2)c1 (stereo not shown) [Example 53]
Ki [1, 5]: 50.8 nM
Ki ([1]; Table 3c, read-out: rMCH1 Ki): 50.8 nM
Ki [2]: 3450 nM
Ki [3]: 10400 nM
Ki [4]: 2310 nM

COC(=O)C1=C(C)N=C(SCc2ccc(OC)cc2)N(C(=O)NCCCN2CCC(c3cccc(NC(C)=O)c3)CC2)C1c1ccc([N+](=O)[O-])cc1 (stereo not shown) [Example 54, METHYL 1-{[(3-{4-[3-(ACETYLAMINO)PHENYL]-1-PIPERIDINYL}PROPYL)AMINO]CARBONYL}-2-[(4-METHOXYBENZYL)SULFANYL]-4-METHYL-6-(4-NITROPHENYL)-1,6-DIHYDRO-5-PYRIMIDINECARBOXYLATE]
Ki [1, 5]: 29.9 nM
Ki ([1]; Table 3c, read-out: rMCH1 Ki): 29.9 nM
Ki [2]: 23000 nM
Ki [3]: 11400 nM
Ki [4]: 11100 nM

COC(=O)C1=C(C)NC(=O)N(C(=O)NCCCN2CCC(c3cccc(NC(C)=O)c3)CC2)[C@H]1c1ccc(F)c(F)c1 [Example 56, METHYL (4S)-3-{[(3-{4[3-(ACETYLAMINO)PHENYL]-1-PIPERIDINYL}PROPYL)AMINO]CARBONYL}-4-(3,4-DIFLUOROPHENYL)-6-METHYL-2-OXO-1,2,3,4-TETRAHYDRO-5-PYRIMIDINECARBOXYLATE]
Ki [1, 5]: 0.26 nM
Ki ([1]; Table 3c, read-out: rMCH1 Ki): 0.26 nM
Ki [2]: 10400 nM
Ki [3]: 7230 nM
Ki [4]: 305 nM

CC(=O)Nc1cccc(C2CCN(CCCC(=O)c3ccc(C)c(C)c3)CC2)c1 [Example 57]
Ki [1, 5]: 90 nM
Ki ([1]; Table 3c, read-out: rMCH1 Ki): 90 nM
Ki [2]: 6090 nM
Ki [3]: 823 nM
Ki [4]: 49 nM

COc1cccc(CC(=O)Nc2cccc(C3CCN(CCCC(=O)c4ccc(C)c(C)c4)CC3)c2)c1 [Example 61]
Ki [1, 5]: 14.2 nM
Ki ([1]; Table 3c, read-out: rMCH1 Ki): 14.2 nM
Ki [2]: 1140 nM
Ki [3]: 1620 nM
Ki [4]: 9.1 nM

CC(=O)Nc1cccc(C2CCN(CCCC(=O)c3ccc(Cl)cc3)CC2)c1 [Example 65]
Ki [1, 5]: 69 nM
Ki ([1]; Table 3c, read-out: rMCH1 Ki): 69 nM
Ki [2]: 1430 nM
Ki [3]: 1730 nM
Ki [4]: 26.4 nM

O=C(Cc1ccccc1)Nc1cccc(C2CCN(CCCC(=O)c3ccc(Cl)cc3)CC2)c1 [Example 68]
Ki [1, 5]: 84 nM
Ki ([1]; Table 3c, read-out: rMCH1 Ki): 84 nM
Ki [2]: 771 nM
Ki [3]: 571 nM
Ki [4]: 57 nM

COc1ccc(C(=O)CCCN2CCC(c3cccc(NC(=O)C(C)C)c3)CC2)c(OC)c1 [Example 78]
Ki [1, 5]: 52 nM
Ki ([1]; Table 3c, read-out: rMCH1 Ki): 52 nM
Ki [2]: 5180 nM
Ki [3]: 2280 nM
Ki [4]: 284 nM

From patent publication US20040038855A1 (priority 1999, published 2004)
